From patent US20240132492A1, “PYRIDOPYRIMIDINE-BASED COMPOUND AND APPLICATION THEREOF” (JINAN UNIVERSITY, priority 2021, published 2024)

Assays:
Type in all cases: cell-based
[1] = molecular target: T1, AKT1 (Homo sapiens, UniProt P31749); assay: Western Blot, degradation of AKT1 protein in H1975-OR cells; conditions: 1000 nM, 24 hours, maximum degradation rate
T1 construct: AKT1, AKT2, and AKT3 proteins in H1975-OR cells; endogenous in cells; host or cells: H1975-OR (osimertinib-resistant H1975)
Description: (§1) Cell line: Non-small cell lung cancer H1975-OR cell line, which is an Osimertinib resistant H1975 cell line, and could be obtained through low dose gradual addition culture. Specific method: H1975 cells were spread in a 10 cm culture dish at a convergence rate of 60-70%, added 50 nM of Osimertinib to the culture medium. After the cell state stabilized, the concentration of Osimertinib was gradually double to 3 μM.
(§2) Conventional Western Blot (immunoblotting) was used for detection, as follows: a certain number of H1975-OR cells were planted on a 96 well plate, adherent cultured in an incubator overnight, and added a certain concentration of compound to act for 24 hours. 1×SDS lysis buffer with protease and phosphatase inhibitors was used to lyse cells. Cell lysates were separated by SDS-PAGE and transferred to PVDF membrane. Then, at room temperature, the PCDF membrane was taken out and immersed in a sealing solution (5% BSA TBS solution containing 0.5% Tween-20) for sealing treatment for 1 hour, and then incubated with a specific primary antibody at 4° C. overnight. The imprints were washed with TBST and incubated with horseradish peroxidase (HRP) labeled secondary antibodies at room temperature for 2 hours. Finally, ECL plus fluorescence detection reagent (Thermo Scientific, Waltham, MA) was used for protein development, and the Amersham Imager 600 system (GE, America) was used for photography. The detection results were processed using ImageJ software to obtain the grayscale value G (Density).

[2] = molecular target: AKT3 (Homo sapiens, UniProt Q9Y243); assay: Western Blot, degradation of AKT3 protein in H1975-OR cells; parameters: endogenous in cells; host or cells: H1975-OR (osimertinib-resistant H1975); conditions: 1000 nM, 24 hours, maximum degradation rate
Description: as §1, §2

[3] = molecular target: T2, AKT2 (Homo sapiens, UniProt P31751); assay: Western Blot, degradation of AKT2 protein in H1975-OR cells; conditions: 1000 nM, 24 hours, maximum degradation rate
T2 construct: AKT1, AKT2, and AKT3 proteins in H1975-OR cells; endogenous in cells; host or cells: H1975-OR (osimertinib-resistant H1975)
Description: as §1, §2

[4] = system: H1975; assay: CCK-8 tumor cell proliferation, H1975; conditions: Homo sapiens, NCI-H1975, H1975 cells, 72 hours
Description: (§3) Tumor cells (see Table 2 to Table 5) were inoculated in 96-well plates in complete culture medium (2000-3000 cells/well). After overnight incubation, the compounds with different concentrations (0.000508 μM-10 μM) were used to treat the cells separately for 72 hours. CCK-8 (Cell Counting Kit 8, Dojindo Laboratories, Kumamoto, Japan) experiment was used to evaluate cell proliferation. GraphPad Prism 5.0 software (La Jolla, CA) was used to calculate the half-maximal inhibitory concentration (IC50) values by fitting the concentration response curve. Each IC50 value was represented as an average value±SD.

[5] = system: H1975OR; assay: CCK-8 tumor cell proliferation, H1975OR; conditions: H1975OR cells (Osimertinib resistant), 72 hours
Description: as §1, §3

T1 sequence (P31749 whole entry): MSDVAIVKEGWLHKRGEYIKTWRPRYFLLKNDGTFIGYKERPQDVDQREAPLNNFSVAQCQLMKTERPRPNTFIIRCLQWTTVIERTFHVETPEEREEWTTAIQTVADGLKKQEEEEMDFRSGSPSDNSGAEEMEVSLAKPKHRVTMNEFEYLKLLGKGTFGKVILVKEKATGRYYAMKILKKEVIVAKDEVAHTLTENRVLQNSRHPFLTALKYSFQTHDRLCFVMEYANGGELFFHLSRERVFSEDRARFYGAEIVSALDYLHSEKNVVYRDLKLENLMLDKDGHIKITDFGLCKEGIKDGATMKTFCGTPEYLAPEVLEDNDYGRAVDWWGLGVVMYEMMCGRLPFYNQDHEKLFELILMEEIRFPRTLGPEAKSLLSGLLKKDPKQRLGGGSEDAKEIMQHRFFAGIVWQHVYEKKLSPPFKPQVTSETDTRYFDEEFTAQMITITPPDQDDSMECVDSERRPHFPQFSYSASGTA
AKT3, sequence (Q9Y243 whole entry): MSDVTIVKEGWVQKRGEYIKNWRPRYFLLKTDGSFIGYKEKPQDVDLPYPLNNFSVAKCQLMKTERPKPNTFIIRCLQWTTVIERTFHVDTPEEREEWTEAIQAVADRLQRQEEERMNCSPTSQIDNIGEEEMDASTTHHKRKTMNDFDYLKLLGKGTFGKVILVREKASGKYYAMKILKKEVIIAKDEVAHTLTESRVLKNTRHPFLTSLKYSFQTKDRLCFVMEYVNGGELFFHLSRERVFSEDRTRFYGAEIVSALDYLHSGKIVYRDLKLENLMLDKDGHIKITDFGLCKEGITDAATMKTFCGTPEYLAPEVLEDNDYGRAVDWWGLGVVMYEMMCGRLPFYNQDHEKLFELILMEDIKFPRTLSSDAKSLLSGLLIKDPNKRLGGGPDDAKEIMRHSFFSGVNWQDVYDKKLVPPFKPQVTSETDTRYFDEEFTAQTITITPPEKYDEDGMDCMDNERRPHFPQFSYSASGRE
T2 sequence (P31751 whole entry): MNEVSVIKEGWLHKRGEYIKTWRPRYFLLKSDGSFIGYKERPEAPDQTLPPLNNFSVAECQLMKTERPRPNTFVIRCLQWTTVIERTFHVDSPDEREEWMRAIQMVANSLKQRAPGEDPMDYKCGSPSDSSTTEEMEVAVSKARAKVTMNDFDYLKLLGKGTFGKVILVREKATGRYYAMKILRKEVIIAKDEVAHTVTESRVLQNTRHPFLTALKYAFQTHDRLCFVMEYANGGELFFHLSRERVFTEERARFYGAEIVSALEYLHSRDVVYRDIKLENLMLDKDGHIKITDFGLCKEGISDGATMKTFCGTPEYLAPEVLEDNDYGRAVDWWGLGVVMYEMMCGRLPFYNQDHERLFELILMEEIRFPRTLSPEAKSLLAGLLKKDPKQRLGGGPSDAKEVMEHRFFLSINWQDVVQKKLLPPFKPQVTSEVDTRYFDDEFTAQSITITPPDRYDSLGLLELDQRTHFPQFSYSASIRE

| Structure (SMILES) | Dmax at 1 µM [1] [%] | Dmax at 1 µM [2] [%] | Dmax at 1 µM [3] [%] | IC50 [4] [µM] | IC50 [5] [µM] |
| --- | --- | --- | --- | --- | --- |
| COc1cc(N2CCN(CCCCCCCCCCCCNC(=O)CC34CC5CC(CC(C5)C3)C4)CC2)ccc1Nc1ncc2c(C)cc(=O)n([C@H]3CCC[C@@H](C(=O)NC4CC4)C3)c2n1 [ZX-HYT-21, (1R, 3S)-3-(2-(4-(4-(12-(2-(((3R, 5R, 7R)-adamantan-1-yl)acetylamino)dodecyl)piperazin-1-yl)-2-methoxyphenyl)amino)-5-methyl-7-oxypyridino [2,3-d]pyrimidin-8 (7H)-yl)-N-cyclopropylcyclohexane-1-carboxylamide] | 0 | 6.8 | 0 | – | – |
| COc1cc(OCCOCCCCCCCCCCCCNC(=O)CC23CC4CC(CC(C4)C2)C3)ccc1Nc1ncc2c(C)cc(=O)n(-c3cccc(NC(=O)C4CC4)c3)c2n1 [ZX-HYT-27, N-(3-(2-(4-(2-((12-(2-(((3R, 5R, 7R)-adamantan-1-yl)acetylamino)dodecyl)oxy)ethoxy)-2-methoxyphenyl)amino)-5-methyl-7-oxypyridino [2,3-d]pyrimidin-8 (7H)-yl)phenyl) cyclopropaneformamide] | 0 | 76.3 | 30.2 | 7.84 ± 1.35 | 1.67 ± 0.69 |
| CCCCCCCCN1CCN(c2ccc(Nc3ncc4c(C)cc(=O)n(-c5cccc(NC(=O)C6CC6)c5)c4n3)c(OC)c2)CC1 [ZX-HYT-30, N-(3-(2-((2-methoxy-4-(4-octylpiperazin-1-yl)phenyl)amino)-5-methyl-7-oxypyridino [2,3-d]pyrimidin-8 (7H)-yl)phenyl) cyclopropane formamide] | 40.5 | 51.9 | 37.1 | > 10 | 8.84 ± 2.17 |
| COc1cc(N2CCN(CCCCCCCCNC(=O)[C@@]34CC5C[C@@](C)(C[C@@](C)(C5)C3)C4)CC2)ccc1Nc1ncc2c(C)cc(=O)n(-c3cccc(NC(=O)C4CC4)c3)c2n1 [ZX-HYT-32] | 0 | 45.2 | 24.3 | 1.02 ± 0.24 | 0.21 ± 0.04 |
| COc1cc(N2CCN(CCCCCCCCNC(=O)CC(C)(C)C)CC2)ccc1Nc1ncc2c(C)cc(=O)n(-c3cccc(NC(=O)C4CC4)c3)c2n1 [ZX-HYT-33] | 0 | 55.3 | 43.7 | 2.31 ± 0.52 | 0.44 ± 0.14 |
| COc1cc(N2CCN(CCCCCCCCCCCCNC(=O)CC34CC5CC(CC(C5)C3)C4)CC2)ccc1Nc1ncc2c(C)cc(=O)n(-c3cccc(NCC4CCC4)c3)c2n1 [ZX-HYT-39, 2-((3R, 5R, 7R)-adamantan-1-yl)-N-(12-(4-(4-((8-(3-((cyclobutylmethyl)amino)phenyl)-5-methyl-7)-oxo-7,8-dihydropyridino [2,3-d]pyrimidin-2-yl)amino)-3-methoxyphenyl)piperazin-1-yl) dodecyl) acetamide] | 0 | 55.3 | 51 | 0.00919 ± 0.00567 | 0.0102 ± 0.004 |
| COc1cc(N2CCN(CCCCCCCCCCCCNC(=O)CC34CC5CC(CC(C5)C3)C4)CC2)ccc1Nc1ncc2c(C)cc(=O)n(-c3cccc(OCC4CC4)c3)c2n1 [ZX-HYT-40, 2-((3R, 5R, 7R)-adamantan-1-yl)-N-(12-(4-(4-((8-(3-(cyclopropylmethoxy)phenyl)-5-methyl-7-oxo-) 7,8-dihydropyridino [2,3-d]pyrimidin-2-yl)amino)-3-methoxyphenyl)piperazin-1-yl) dodecyl) acetamide] | 32 | 53 | 30.7 | 0.0864 ± 0.0296 | 0.0609 ± 0.014 |

Other lines, results leading:

| Dmax at 1 µM [1] [%] | Dmax at 1 µM [2] [%] | Dmax at 1 µM [3] [%] | IC50 [4] [µM] | IC50 [5] [µM] | Structure (SMILES) |
| --- | --- | --- | --- | --- | --- |
| 0 | 70.3 | 31.4 | – | – | CCc1cccc(-n2c(=O)cc(C)c3cnc(Nc4ccc(N5CCN(CCCCCCCCCCCCNC(=O)CC67CC8CC(CC(C8)C6)C7)CC5)cc4OC)nc32)c1 [ZX-HYT-16, 2-((3R, 5R, 7R)-adamantan-1-yl)-N-(12-(4-(4-(8-(3-ethylphenyl)-5-methyl-7-oxy-7,8-dihydropyridino [2,3-d]pyrimidin-2-yl)amino)-3-methoxyphenyl)piperazin-1-yl) dodecyl) acetamide] |
| 0 | 30.6 | 0 | – | – | COc1cc(N2CCN(CCCCCCCCCCCCNC(=O)CC34CC5CC(CC(C5)C3)C4)CC2)ccc1Nc1ncc2c(C)cc(=O)n(-c3cccc(NC4CCN(C)CC4)c3)c2n1 [ZX-HYT-18, 2-((3R, 5R, 7R)-adamantan-1-yl)-N-(12-(4-(3-methoxy-4-(5-methyl-8-(3-(1-methylpipe-4-yl)amino)phenyl)-7-oxo-7,8-dihydropyridino [2,3-d]pyrimidin-2-yl)amino)phenyl) piperazin-1-yl) dodecyl) acetamide] |
| 0 | 25 | 0 | 0.014 | 0.00682 | COc1cc(N2CCN(CCCCCCCCCCCCNC(=O)CC34CC5CC(CC(C5)C3)C4)CC2)ccc1Nc1ncc2c(C)cc(=O)n([C@H]3CCCN(C(=O)C4CC4)C3)c2n1 [ZX-HYT-22] |
| 0 | 41.4 | 0 | – | – | COc1cc(N2CCN(CCCCCCCCCCCCNC(=O)CC34CC5CC(CC(C5)C3)C4)CC2)ccc1Nc1ncc2c(C)cc(=O)n([C@H]3CCC[C@@H](NC(=O)C4CC4)C3)c2n1 [ZX-HYT-23] |
| – | – | – | 0.645 | 0.177 | COc1cc(OCCCCCCCCCCCCNC(=O)CC23CC4CC(CC(C4)C2)C3)ccc1Nc1ncc2c(C)cc(=O)n(-c3cccc(NC(=O)C4CC4)c3)c2n1 [ZX-HYT-28, N-(3-(2-((4-((12-(2-((3R, 5R, 7R)-adamantan-1-yl)acetylamino)dodecyl)oxy)-2-methoxyphenyl)amino)-5-methyl-7-oxypyrimidino [2,3-d]pyrimidin-8 (7H)-yl)phenyl) cyclopropane formamide] |
| 0 | 55.5 | 30.6 | 0.145 ± 0.101 | 0.217 ± 0.0367 | COc1cc(N2CCN(CCCCCCCCN)CC2)ccc1Nc1ncc2c(C)cc(=O)n(-c3cccc(NC(=O)C4CC4)c3)c2n1 [ZX-HYT-31] |
| 55.4 | 56.6 | 67.5 | 1.15 ± 0.42 | 0.25 ± 0.12 | COc1cc(N2CCN(CCCCCCCCNC(=O)C3CCC(F)(F)CC3)CC2)ccc1Nc1ncc2c(C)cc(=O)n(-c3cccc(NC(=O)C4CC4)c3)c2n1 [ZX-HYT-34] |
| 42.2 | 43.4 | 39.1 | 2.59 ± 0.2 | 0.32 ± 0.04 | COc1cc(N2CCN(CCCCCCCCNC(=O)C34CC5CC(CC(C5)C3)C4)CC2)ccc1Nc1ncc2c(C)cc(=O)n(-c3cccc(NC(=O)C4CC4)c3)c2n1 [ZX-HYT-35, (3R,5R,7R)—N-(8-(4-(4-((8-(3-(cyclopropaneformamide)phenyl)-5-methyl-7-oxy-7,8-dihydropyridino [2,3-d-dipyrimidin-2-yl)amino)-3-methoxyphenyl)piperazin-1-yl)octyl)adamantan-1-carboxylamide] |
| 0 | 12.3 | 0 | 0.219 ± 0.0782 | 0.107 ± 0.008 | COc1cc(N2CCN(CCCCCCCCCCCCNC(=O)CC34CC5CC(CC(C5)C3)C4)CC2)ccc1Nc1ncc2c(C)cc(=O)n(-c3ccccc3)c2n1 [ZX-HYT-36, 2-((3R, 5R, 7R)-adamantan-1-yl)-N-(12-(4-(3-methoxy-4-((5-methyl-7-oxy-8-phenyl-7,8))-dihydropyridino [2,3-d]pyrimidin-2-yl)amino)phenyl) piperazin-1-yl) dodecyl) acetamide] |
| 0 | 17.5 | 0 | 4.15 ± 0.462 | 6.31 ± 0.645 | COc1cc(N2CCN(CCCCCCCCCCCCNC(=O)CC34CC5CC(CC(C5)C3)C4)CC2)ccc1Nc1ncc2c(C)cc(=O)n([C@H]3CCN(C(=O)C4CC4)C3)c2n1 [ZX-HYT-37] |
| 0 | 16.2 | 0 | – | – | COc1cc(OCCOCCCCCCCCCCCCOCCC23CC4CC(CC(C4)C2)C3)ccc1Nc1ncc2c(C)cc(=O)n(-c3cccc(NC(=O)C4CC4)c3)c2n1 [ZX-HYT-38, N-(3-(2-((4-(2-((12-(2-((3R, 5R, 7R)-adamantan-1-yl)ethoxy)dodecyl)oxy)ethoxy)-2-methoxyphenyl)amino)-5-methyl-7-oxypyridino [2,3-d]pyrimidin-8 (7H)-yl)phenyl) cyclopropane formamide] |
